Structures are written as SMILES. Read-outs that look alike come from different tables or passages of the source. Where only a bound is given, the exact number is not on record here.

Results on one compound are retold here after paper PMC10002220, “In Vivo Reversal of P-Glycoprotein-Mediated Drug Resistance in a Breast Cancer Xenograft and in Leukemia Models Using a Novel, Potent, and Nontoxic Epicatechin EC31” (International Journal of Molecular Sciences, 2023).

One series deals with K562 cells. Put plainly: EC31 efflux in K562 cells. It is filed as cell-based, human. As to conditions: after 150 min of efflux, preincubated with 1 µM. The procedure: (§1) N = 3 independent experiments.
(§2) After incubation, the medium was removed, and cells were washed with cold PBS twice. To the cell pellet, 300 μL of acetonitrile was added. The cells were sonicated for 10 min at 50 Hz using Intertek-CD-3800(A) sonicator. The lysed cells were then spun at 14,000 rpm for 10 min at room temperature. The supernatant containing EC31 was saved and was filtered with 0.45 µm syringe filter before UPLC-MS/MS analysis. For the efflux assay, the cells were preincubated with 1 μM EC31 at 37 °C for 2.5 h. The cells were then washed with PBS, were resuspended in drug-free medium, and were further incubated at 37 °C. The cells were collected at 0, 30, 60, and 150 min, respectively. The intracellular EC31 at different time points was analyzed as described in the Section 4.9.

Another series has as its system P388ADR leukemia. Put plainly: In vivo efficacy in reversing DOX resistance in murine leukemia P388ADR model. The arrangement: species or system B6D2F1 mice. How it is done:
Irradiated BDF1 mice were i.p. inoculated with P388ADR cells, which caused mouse leukemia. Irradiated NOD/SCID mice were i.v. inoculated with K562/P-gp cells, which caused human leukemia. The mice were randomized and treated with (1) control treatment (no treatment), (2) DOX alone, and (3) EC31 + DOX. Treatments were given as indicated by the arrows. The number of mice deaths in each treatment group was recorded every day. (A) The percent survival of mice infected with P388ADR. (B) The percent survival of mice infected with K562/P-gp. The mice median survival days and the increased lifespan (ILS) were analyzed with Log-rank (Mantel–COX) test in Prism 5.0. Student’s paired t test was conducted as indicated. ** represents p < 0.01, and *** represents p < 0.001. N.S. = not significant.
About 1 × 10^6 cells of P388ADR were i.p. inoculated in male B6D2F1 mice aged 5–7 weeks old. There were 3 groups: (1) control group with no treatment, (2) DOX (3 mg/kg i.p.) alone, and (3) cotreatment with EC31 (60 mg/kg i.p.) being injected 1 h prior to DOX (3 mg/kg i.p.) administration. In group 2, DOX was i.p. injected on days 2, 6, 10, 14, and 18 only. In group 3, EC31 was i.p. injected on days 1, 2, 5, 6, 9, 10, 13, 14, 17, and 18, and DOX was i.p. injected on days 2, 6, 10, 14, and 18. Before each treatment, 1.5 mg/mL of DOX was freshly prepared using PBS. Mice survival and body weight were monitored during the study period.

For series [1], the system named is P-gp. Put plainly: EC50 for reversing drug resistance in P388ADR cells (cell proliferation assay).
From the text: (§3) EC50 was defined as the concentration at which the modulator can reduce the IC50 of an anticancer drug by half in the P-gp-overexpressing cell lines. […] The P-gp-modulating activity of methylated catechin derivatives was further studied by measuring the EC50. […] Three P-gp-overexpressing cell lines were employed, including breast cancer cell line LCC6MDR, mouse leukemia cell line P388ADR, and human leukemia cell line K562/P-gp. The anticancer drugs tested included DOX, PTX, and VCR. All values were presented as mean ± standard error of mean. N = 3–6 independent experiments.
(§4) About 6500 cells of LCC6MDR or 10,000 cells of P388ADR or K562/P-gp were seeded to each well of 96-well plate and were then incubated at 37 °C overnight. […] Cell viability was determined using CellTiter 96 AQueous Assay (Promega, Madison, WI, USA, #G1111) as reported previously [38]. The % of cell survival, IC50 of anticancer drugs towards the cell line, and EC50 of modulators were analyzed using nonlinear regression in Prism 5.0.
Another series relates to MRP1. As to conditions: Cpds at 1 μM; IC50 of DOX without/with modulator; cited from earlier work.
Series [2] is described as follows: In vivo toxicity study of EC31 alone and combined with PTX. As to conditions: q2d x 12. How it is done:
(A) In vivo toxicity study of EC31 alone and of its combination with PTX was conducted. BALB/c mice were randomized into five groups with five mice in each group. Body weight of BALB/c mice during treatments was measured every two days. The treatment groups included (1) solvent control (5% NMP + 5% Cremophor EL + 90% PBS to dissolve EC31 and 5% Ethanol + 5% Cremophor EL + 90% PBS to dissolve PTX), (2) PTX (12 mg/kg i.v.), (3) EC31 (30 mg/kg i.p.), (4) EC31 (30 mg/kg i.p.) + PTX (12 mg/kg i.v.), or (5) EC31 (60 mg/kg i.p.) + PTX (12 mg/kg i.v.). The administration was performed every other day 12 times (q2d x 12). The loss of body weight or appetite and treatment-related mortality were monitored and defined as toxicity. (B) BALB/c nude mice were subcutaneously xenografted with LCC6MDR. When the tumor reached 150–300 mm^3, the mice were randomized and administered once with (1) EC31 alone, (2) PTX alone, or (3) EC31 + PTX. […] The tumors were taken out, and their weights were measured. Intratumor concentration of EC31 or PTX was measured using UPLC-MS/MS, and the actual concentration of PTX or EC31 was normalized to the tumor weight. […] Tumor volume and body weight were monitored throughout the treatment period. […] The tumor volume, tumor weight, and doubling time were measured. The number of animal deaths was recorded during the treatment period. […]

The test system of another series is K562/P-gp cells. Put plainly: EC31 efflux in K562/P-gp cells. The format is cell-based, human. The conditions noted are these: after 150 min of efflux, preincubated with 1 µM. How it is done:
as §1, §2

Series [3] addresses P-gp (Homo sapiens, UniProt P08183). The experiment in a line: EC50 for reversing drug resistance in LCC6MDR cells (cell proliferation assay). As to conditions: for EC50: EC50 for Reversing MDR, LCC6MDR.
From the text: as §3, §4

P-gp (Homo sapiens, UniProt P08183), sequence (P08183 whole entry): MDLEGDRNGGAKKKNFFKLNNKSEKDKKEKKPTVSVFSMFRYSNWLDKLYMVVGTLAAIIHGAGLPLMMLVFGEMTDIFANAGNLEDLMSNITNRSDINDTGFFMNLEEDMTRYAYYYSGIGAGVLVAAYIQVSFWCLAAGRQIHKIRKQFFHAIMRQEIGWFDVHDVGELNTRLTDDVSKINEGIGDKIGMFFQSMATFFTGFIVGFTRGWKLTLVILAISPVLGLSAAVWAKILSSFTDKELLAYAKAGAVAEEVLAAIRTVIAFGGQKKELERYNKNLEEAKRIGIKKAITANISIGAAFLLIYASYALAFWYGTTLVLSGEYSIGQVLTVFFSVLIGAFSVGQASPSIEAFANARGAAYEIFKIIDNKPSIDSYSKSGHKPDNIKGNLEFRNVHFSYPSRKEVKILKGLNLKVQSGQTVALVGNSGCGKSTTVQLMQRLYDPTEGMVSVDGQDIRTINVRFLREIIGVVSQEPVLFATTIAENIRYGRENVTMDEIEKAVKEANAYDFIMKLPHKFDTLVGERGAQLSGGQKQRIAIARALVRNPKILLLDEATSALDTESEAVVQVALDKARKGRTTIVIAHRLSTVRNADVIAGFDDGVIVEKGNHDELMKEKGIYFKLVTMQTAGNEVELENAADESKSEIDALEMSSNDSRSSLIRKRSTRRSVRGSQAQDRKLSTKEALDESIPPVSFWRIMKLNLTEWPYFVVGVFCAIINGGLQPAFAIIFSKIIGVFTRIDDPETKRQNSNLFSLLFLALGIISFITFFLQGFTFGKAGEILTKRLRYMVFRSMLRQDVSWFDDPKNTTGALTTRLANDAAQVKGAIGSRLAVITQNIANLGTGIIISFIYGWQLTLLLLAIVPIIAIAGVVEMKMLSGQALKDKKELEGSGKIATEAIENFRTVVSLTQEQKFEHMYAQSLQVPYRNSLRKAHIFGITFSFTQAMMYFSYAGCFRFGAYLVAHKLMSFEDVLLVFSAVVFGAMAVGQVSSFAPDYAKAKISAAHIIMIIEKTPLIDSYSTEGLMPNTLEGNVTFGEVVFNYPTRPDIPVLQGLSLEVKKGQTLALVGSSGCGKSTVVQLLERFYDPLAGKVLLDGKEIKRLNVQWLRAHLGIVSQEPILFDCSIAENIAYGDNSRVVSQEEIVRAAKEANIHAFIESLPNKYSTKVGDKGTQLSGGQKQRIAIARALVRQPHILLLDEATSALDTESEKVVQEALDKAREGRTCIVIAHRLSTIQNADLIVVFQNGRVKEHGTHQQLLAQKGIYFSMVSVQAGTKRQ

For `COc1cc(OC)c2c(c1)O[C@H](c1ccc(OC)c(OC)c1)[C@H](OC(=O)c1ccc(F)c(NC(=O)c3cc(OC)c(OC)c(OC)c3)c1)C2` [EC31], the entries for the “EC31 remaining in cells” value in the series with K562 cells and in the series with K562/P-gp cells were “about 23%” and ~16%, respectively. The median survival in the series on P388ADR leukemia (EC31 60 mg/kg i.p. + DOX 3 mg/kg i.p.) worked out at 21.5 days. In the series with P388ADR leukemia (EC31 60 mg/kg i.p. + DOX 3 mg/kg i.p. compared to DOX alone), the “ILS% (increase in lifespan)” value is listed as 30.3%. The EC50 with P-gp [1] (read-out: EC50 for Reversing MDR, DOX Resistance, P388ADR, concentration that reduces IC50 of DOX by half) was 186 ± 31 nM; with P-gp [1] (read-out: EC50 for Reversing MDR, PTX Resistance, P388ADR, concentration that reduces IC50 of PTX by half), 249 ± 18 nM; on P-gp [3] (DOX Resistance, concentration that reduces IC50 of DOX by half), 159 ± 21 nM; on P-gp [3] (PTX Resistance, concentration that reduces IC50 of PTX by half), 94 ± 21 nM. Further, in the series with MRP1, the “2008MRP1 MRP1-modulating activity RF (relative fold)” value is recorded as 1.3. In addition, the “mortality or toxicity symptoms” value in series [2] (EC31 30 mg/kg i.p. alone) is given as “did not cause any mortality or toxicity symptoms”. In addition, in series [2] (EC31 30 or 60 mg/kg i.p. + PTX 12 mg/kg i.v.), the body weight loss is given as ≤ 15%. Further, the “fold lower EC50 than that of verapamil” value at P-gp [3] (reversing PTX resistance in LCC6MDR) is given as “about 4.7 fold”.
